# Source: publication PMC8070582, “Therapeutic Efficacy of a Novel Acetylated Tetrapeptide in Animal Models of Age-Related Macular Degeneration” (International Journal of Molecular Sciences, 2021)
# Values joined by “and” are separate entries in the source; they are usually repeats but may differ in a detail not shown here. Identical values can stand only once. “Also recorded” adds a separate entry of the source.
# Assays:
# [1] = tested on: corneal neovascularization; parameters: method as in PMID 24240485; conditions: administered on day 7 after suture placement; 1 week post-treatment; cited from earlier work
# [2] = cited from earlier work
# [3] = tested on: choroidal neovascularization (CNV); experiment: Laser-induced CNV mouse model, treatment on the same day as laser irradiation (CNV area); format: in vivo; conditions: day 7, vs vehicle (p < 0.001)
# Procedure: Six-week-old male C57BL/6J mice were purchased from Central Laboratory Animal and then maintained in a specific pathogen free facility in Seoul National University. After deep anesthesia with zolazepam plus tiletamine (3.75 mg/kg, Virbac, Seoul, Korea) and xylazine (7.5 mg/kg, Bayer AG, Leverkusen, Germany), mice were treated with a customized laser indirect ophthalmoscope system (ILOODA) to break Bruch’s membrane (300 μm spot size, 300 mW power, and 100 ms exposure time) as described previously. After the laser irradiation, 10 μL PBS (vehicle), 1 ng of each peptide (RLYE, R(D)LYE and Ac-RLYE), or 145 ng of aflibercept was administered into the vitreous cavity of mice (six per each treatment group) at the same day as laser irradiation. At 7 days after the laser irradiation, the RPE-choroid-scleral complexes were prepared from the enucleated eyes. After immunostaining of the RPE-choroid-scleral complexes with isolectin B4 conjugated with Alexa Fluor-594 (1:100; cat. No. I21413, Invitrogen, Waltham, MA, USA), the CNV area was quantitatively analyzed by the measurement of the area using the ImageJ software. All animal experiments were carried out according to the guidelines of the Ethics Committee for Protection and Use of Experimental Animals of Seoul National University.
# [4] = tested on: choroidal neovascularization (CNV); experiment: Therapeutic laser-induced CNV mouse model, treatment 10 days after laser irradiation (CNV area); format: in vivo; conditions: 1 µL of 1.5 mM intravitreal 10 days after laser irradiation; day 4 after treatment
# Procedure: […]. Here, the same amount of saline was injected into the control group. After 4 days (14 days after the laser irradiation), an experiment for analyzing a therapeutic effect was carried out by extracting the eyeballs of the mice. The extracted eyeballs were fixed in 4% paraformaldehyde for 12 h, and embedded in paraffin. Sections with a thickness of 4 μm were prepared from paraffin tissue, and subjected to H&E staining. Afterward, an image of a section with the largest choroidal neovascular membrane area was taken from each subject, and the area of the choroidal neovascular membrane was quantitatively analyzed using ImageJ program (NIH, Bethesda, Rockville, MD, USA). In the saline-injected control group, the average of the choroidal neovascular areas was represented as 100%, and a therapeutic effect of each treatment group was analyzed.
# [5] = cited from earlier work; remark: listed apart in the source
# [6] = tested on: retinal vascular leakage; experiment: Streptozotocin-induced diabetic mouse model, retinal vascular leakage; format: in vivo; conditions: 1 µL of 1.5 mM intravitreal; 24 h after treatment; vs vehicle; RLYE 0.01 < p < 0.05, Ac-RLYE p < 0.01
# Procedure: To prepare a streptozotocin-induced diabetic mouse model, a freshly prepared STZ solution (100 mM) in a citrate buffer (100 mM, pH 4.5) was injected intraperitoneally at 150 mg/kg into the mice, and to prevent hypoglycemic shock, 10% sucrose was sufficiently provided. After two days, blood glucose was measured using an Accu-Chek Performa blood glucose meter (Roche Diagnostics GmbH, Mannheim, Germany), and when non-fasting blood glucose within 1 to 2 weeks was maintained at 300 mg/dl or more, the mice were used as diabetic animal models. […]. Here, the same amount of PBS was injected into the control group. The peptide was injected, and after 24 h, 1 mL (1.25 mg) of FITC-dextran (250 kDa) was injected into the left ventricle of each mouse to allow circulation for approximately 5 min. The mice were euthanized by cervical dislocation, and the eyeballs were extracted and fixed in 4% paraformaldehyde at room temperature for 1 h. The retina was isolated from the fixed eyeball to prepare a retinal flat mount, and vascular leakage was observed under a confocal microscope. Meanwhile, the fluorescence of FITC-dextran leaked from retinal vessels was measured using Fluoview software.
# [7] = tested on: VEGF-induced angiogenesis; parameters: method as in PMID 10747021; conditions: slow-releasing hydrogel implants in corneal stroma; assessed on day 12; cited from earlier work
# [8] = tested on: choroidal neovascularization (CNV); experiment: Rabbit 7-week CNV model, treatment 1 week after laser irradiation; format: in vivo
# Procedure: From the day of laser irradiation to 7, 14, 21, 28, 35, 42, and 49 days after laser induced CNV, the rabbits were instilled with a 1% Mydriacyl eye drop and then anesthetized.
# Fundus photography of retinal angiography was performed at the 42nd day from test substance treatment. Additionally, the eyes were then removed and fixed in 10% formalin solution for 24 h. The cornea, lens, and retina were removed. After washing with PBS, the […] and choroid complex (RPE-choroid complex) just remained from fixed eyes. The CNV area was stained with rhodamine conjugated isolectin B4 (IB4, Sigma-Aldrich, St. Louis, MO, USA) for 24 h at 4 °C. After staining, they were washed in PBS, flat-mounted on a glass slide, and then observed with a fluorescence microscope equipped with a digital camera and photographed. The CNV area was measured by ImageJ software.
# [9] = tested on: choroidal neovascularization (CNV); experiment: Rabbit 4-week laser-induced CNV model (retinal fluorescence intensity); format: in vivo; conditions: 2000 µg/eye intravitreal; only until day 14 after CNV induction
# From the text: From the day of laser irradiation to 7, 14, 21, and 28 days after laser induced CNV, the rabbits were instilled with a 1% Mydriacyl eye drop and then anesthetized.
substance,measurement,setting,value
"ranibizumab: an anti-VEGF therapy (anti-VEGF antibody), positive control",degree of reduction of the CNV area compared with vehicle,[1],53%–60%
same,t1/2 (ocular),[2],52.4 h
same,volume of distribution,[2],2.7 mL
Arg-Leu-Tyr-Glu (RLYE; printed: Arg-Leu-Tyr-Glu) [antiangiogenic tetrapeptide derived from the human plasminogen kringle-5 domain],CNV area,[3]; 1 ng/1 µL/eye intravitreal on day of laser irradiation,significantly reduced
same,degree of CNV area reduction compared with vehicle,[4],55%
same,occurrence of CNV (CNV area),[4],significantly reduced the CNV area; also recorded: effectively reduced
same,serum half-life,[5],1.2 h
same,retinal vascular leakage (FITC-dextran),[6],effectively inhibited
bevacizumab: anti-VEGF antibody,degree of reduction of the CNV area compared with vehicle,[1],46%–60%
ATWLPPR,VEGF-induced angiogenesis,[7],abolish VEGF-induced angiogenesis
aflibercept: fusion protein of ligand-binding elements of VEGFR-1 and VEGFR-2 fused to the Fc portion of IgG,retinal fluorescence intensity vs vehicle control,"[8]; 2000 µg/eye intravitreal on day 7 after laser, days 7, 14, 21, 28, 35 and 42 after administration",significantly lower
same,"CNV lesions (CNV area) compared with vehicle control, reduced to","[8]; aflibercept 2000 µg/eye, day 42 after drug administration",38.9% and 36%
same,CNV area,[3]; 145 ng/1 µL/eye intravitreal on day of laser irradiation,significantly reduced
same,retinal fluorescence intensity vs vehicle group,[9],significantly reduced
same,t1/2 (ocular),[2],94.1 h
same,volume of distribution,[2],1.4 mL
